{"source": "ChEMBL document CHEMBL4017472", "about": "“New modified 2-aminobenzimidazole nucleosides: Synthesis and evaluation of their activity against herpes simplex virus type 1” (Bioorg Med Chem Lett, 2017)", "key": {"Human alphaherpesvirus 1 [1]": {"system": "Human alphaherpesvirus 1", "assay": "Antiviral activity against acyclovir-resistant HSV-1 L2 infected in African green monkey Vero E6 cells assessed as viral reproduction at 52 uM measured after 48 hrs post infection by gentian violet staining based plaque reduction assay (reference value: 5.95 +/- 0.03 log10PFU/ml)", "assay_type": "functional, Vero C1008"}, "[2]": {"assay": "Cytotoxicity against African green monkey Vero E6 cells measured after 3 days by trypan blue assay", "assay_type": "cell-based, Vero C1008", "conditions": "chlorocebus sabaeus"}, "Human alphaherpesvirus 1 [3]": {"system": "Human alphaherpesvirus 1", "assay": "Antiviral activity against HSV1 L2 infected in African green monkey Vero E6 cells assessed as reduction in virus-induced cytopathic effect", "assay_type": "functional", "conditions": "Human alphaherpesvirus 1, L2, Vero C1008"}, "Human alphaherpesvirus 1 [4]": {"system": "Human alphaherpesvirus 1", "assay": "Antiviral activity against HSV-1 L2/Rp-ACV/2 infected in African green monkey Vero E6 cells assessed as reduction in virus-induced cytopathic effect", "assay_type": "functional", "conditions": "Human alphaherpesvirus 1, L2/Rp-ACV/2, Vero C1008"}, "Human alphaherpesvirus 1 [5]": {"system": "Human alphaherpesvirus 1", "assay": "Antiviral activity against foscarnet-resistant HSV-1 F+ infected in African green monkey Vero E6 cells assessed as viral reproduction at 52 uM measured after 48 hrs post infection by gentian violet staining based plaque reduction assay (reference value: 6.6 +/- 0.1 log10PFU/ml)", "assay_type": "functional, Vero C1008"}, "Human alphaherpesvirus 1 [6]": {"system": "Human alphaherpesvirus 1", "assay": "Antiviral activity against acyclovir and cidofovir-resistant HSV-1 L2 infected in African green monkey Vero E6 cells assessed as viral reproduction at 52 uM measured after 48 hrs post infection by gentian violet staining based plaque reduction assay (reference value: 6.52 +/- 0.11 log10PFU/ml)", "assay_type": "functional, Vero C1008"}, "Human alphaherpesvirus 1 [7]": {"system": "Human alphaherpesvirus 1", "assay": "Antiviral activity against acyclovir-resistant HSV-1 L2 infected in African green monkey Vero E6 cells assessed as viral reproduction at 207 uM measured after 48 hrs post infection by gentian violet staining based plaque reduction assay (reference value: 5.95 +/- 0.03 log10PFU/ml)", "assay_type": "functional, Vero C1008"}, "Human alphaherpesvirus 1 [8]": {"system": "Human alphaherpesvirus 1", "assay": "Antiviral activity against acyclovir and foscarnet-resistant HSV-1 L2 infected in African green monkey Vero E6 cells assessed as viral reproduction at 207 uM measured after 48 hrs post infection by gentian violet staining based plaque reduction assay (reference value: 5.92 +/- 0.11 log10PFU/ml)", "assay_type": "functional, Vero C1008"}, "Human alphaherpesvirus 1 [9]": {"system": "Human alphaherpesvirus 1", "assay": "Antiviral activity against acyclovir-resistant HSV-1 L2 infected in African green monkey Vero E6 cells assessed as viral reproduction at 415 uM measured after 48 hrs post infection by gentian violet staining based plaque reduction assay (reference value: 5.95 +/- 0.03 log10PFU/ml)", "assay_type": "functional, Vero C1008"}, "Human alphaherpesvirus 1 [10]": {"system": "Human alphaherpesvirus 1", "assay": "Antiviral activity against acyclovir and cidofovir-resistant HSV-1 L2 infected in African green monkey Vero E6 cells assessed as viral reproduction at 415 uM measured after 48 hrs post infection by gentian violet staining based plaque reduction assay (reference value: 6.52 +/- 0.11 log10PFU/ml)", "assay_type": "functional, Vero C1008"}, "Human alphaherpesvirus 1 [11]": {"system": "Human alphaherpesvirus 1", "assay": "Antiviral activity against acyclovir-resistant HSV-1 L2 infected in African green monkey Vero E6 cells assessed as inhibition of viral reproduction measured after 48 hrs post infection by gentian violet staining based plaque reduction assay", "assay_type": "functional", "conditions": "Vero C1008"}, "Human alphaherpesvirus 1 [12]": {"system": "Human alphaherpesvirus 1", "assay": "Antiviral activity against HSV-1 L2/Rp-ACV/2 infected in African green monkey Vero E6 cells assessed as inhibition of viral reproduction measured after 48 hrs post infection by gentian violet staining based plaque reduction assay", "assay_type": "functional", "conditions": "Vero C1008"}}, "note": "pIC50: −log10 of the molar value.", "data": [{"compound": "Nc1nc2cc(F)c(F)cc2n1[C@@H]1O[C@H](CO)[C@@H](O)[C@H]1O", "values": [{"measurement": "Activity", "setting": "Human alphaherpesvirus 1 [1]", "result": 5.04, "unit": "log10PFU/ml"}, {"measurement": "MCC at 72 h", "setting": "[2]", "result": "> 3.32", "unit": "mM"}, {"measurement": "pIC50", "setting": "Human alphaherpesvirus 1 [3]", "result": 3.98}, {"measurement": "IC95", "setting": "Human alphaherpesvirus 1 [3]", "result": 830, "unit": "µM"}, {"measurement": "pIC50", "setting": "Human alphaherpesvirus 1 [4]", "result": 3.98}, {"measurement": "IC95", "setting": "Human alphaherpesvirus 1 [4]", "result": 830, "unit": "µM"}, {"measurement": "Activity", "setting": "Human alphaherpesvirus 1 [5]", "result": 5.9, "unit": "log10PFU/ml"}, {"measurement": "Activity", "setting": "Human alphaherpesvirus 1 [6]", "result": 5.71, "unit": "log10PFU/ml"}, {"measurement": "Activity", "setting": "Human alphaherpesvirus 1 [7]", "result": 4.15, "unit": "log10PFU/ml"}, {"measurement": "Activity", "setting": "Human alphaherpesvirus 1 [8]", "result": 4.47, "unit": "log10PFU/ml"}, {"measurement": "Activity", "setting": "Human alphaherpesvirus 1 [9]", "result": 3.45, "unit": "log10PFU/ml"}, {"measurement": "Activity", "setting": "Human alphaherpesvirus 1 [10]", "result": 4.61, "unit": "log10PFU/ml"}, {"measurement": "inhibition", "setting": "Human alphaherpesvirus 1 [11]", "result": "Dose-dependent effect"}, {"measurement": "inhibition", "setting": "Human alphaherpesvirus 1 [12]", "result": "Dose-dependent effect"}]}]}
